The term EC50 denotes the concentration at which the effect is half-maximal.

One assay deals with HCV GT1a(H77) replicon. Kind of assay: HCV replicon luciferase reporter assay, genotype 1a. Format: cell-based, HCV genotype 1a. Conditions: Hepatitis C virus, 72 h, HUH-7 cells, 3 days incubation. The source says: A stable HCV GT1a(H77) replicon luciferase reporter cell line (Yanagi M, Purcell R H, Emerson S U, et al. Transcripts from a single full-length cDNA clone of hepatitis C virus are infectious when directly transfected into the liver of a chimpanzee. Proc Natl Acad Sci USA 1997; 94(16):8738-8743) was generated as described previously for the genotype 1b(Con1) replicon luciferase cell line. The replicon construct was modified by introducing mutations into the genes encoding the NS3 helicase domain (proline replaced by leucine at position 1496) and NS5A (serine to isoleucine at position 2204) to improve replication in cell culture.
(§1) HCV replicon luciferase assays were developed to monitor the inhibitory effects of compounds described in the disclosure on HCV genotypes 1a and 1b viral replication. HUH-7 cells, constitutively expressing the HCV replicon, were grown in Dulbecco's Modified Eagle Media (DMEM) (Gibco-BRL) containing 10% Fetal calf serum (FCS) (Sigma) and 1 mg/mL G418 (Gibco-BRL). Compounds were serially diluted 3 folds in DMSO for a twenty-point titration and subsequently transferred to sterile 384-well tissue-culture treated plates (Corning cat #3571). The plates were then seeded with 50 μL of cells at a density of 3.0×10^3 cells/well in DMEM containing 4% FCS (final DMSO concentration at 0.5%). After 3 days incubation at 37° C., cells were analyzed for Renilla Luciferase activity using the EnduRen as substrate (Promega cat #E6485). The EnduRen substrate was diluted in DMEM and then added to the plates to a final concentration of 7.5 μM. The plates were incubated for 2 hrs at 37° C. and then read immediately for 30 seconds with Viewlux Imager (PerkinElmer) using a luminescence program. To assess cytotoxicity of compounds, CC50 values were generated by multiplexing the EnduRen-containing plates with Cell Titer-Blue (Promega, cat # G8082). Cell-Titer Blue (3 μL) was added to each well and incubated for 8 hrs at 37° C. The fluorescence signal from each well was read, with an excitation wavelength at 525/10 nm and an emission wavelength of 598/10 nm, using the Viewlux Imager.
(§2) The EC50 values for compounds were calculated by using a four-parameter logistic equation: y=A+((B−A)/(1+((C/x)^D))), where A and B denotes minimal and maximal % inhibition, respectively, C is the EC50, D is the hill slope and x represents compound concentration.
A general note: A replicon is a self-replicating genome or part of one, used to study replication in cells.

A further assay has as its system HCV GT1b(Con1) replicon. Kind of assay: HCV replicon luciferase reporter assay, genotype 1b. The format is cell-based, HCV genotype 1b. The settings on record: Hepatitis C virus, 72 h, HUH-7 cells, 3 days incubation.
Source text: An HCV GT1b(Con1) replicon cell system was established as described by Lohmann V, Korner F, Koch J, Herian U, Theilmann L, Bartenschlager R., Science 285(5424):110-3 (1999) and modified to introduce a luciferase reporter (Krieger N, Lohmann V, and Bartenschlager R, J. Virol. 75(10):4614-4624 (2001)). cDNA encoding a humanized form of the Renilla luciferase gene, and a linker sequence fused directly to the 3′-end of the luciferase gene were introduced into the replicon construct using an Asc1 restriction site located in core, directly upstream of the neomycin marker gene. The adaptive mutation at position 1179 (serine to isoleucine) was also introduced (Blight K J, Kolykhalov, A A, Rice, C M, Science 290(5498):1972-1974). A stable cell line constitutively expressing this HCV replicon construct was generated by first linearizing plasmid DNAs with ScaI. RNA transcripts were synthesized in vitro using the T7 MegaScript transcription kit (Ambion, Austin, Tex.) according to manufacturer's directions. In vitro transcripts of the cDNA were transfected into the human hepatoma cell line, HUH-7. […] Resulting cell lines were characterized for positive and negative strand RNA production and protein production over time.
as §1, §2

Read-outs that look alike come from different tables or passages of the source.

On to `C[C@H]1CC/C=C\[C@@H]2C[C@@]2(C(=O)NS(=O)(=O)C2(C)CC2)NC(=O)[C@@H]2C[C@@H](OC(=O)N3Cc4cccc(F)c4C3)CN2C(=O)[C@@H](NC(=O)OC(C)(C)C)[C@H](C)C1` [Compound 1314, (2R,6S,7R,9S,13aS,14aR,16aS,Z)-6-((tert-butoxycarbonyl)amino)-7,9-dimethyl-14a-(((1-methylcyclopropyl)sulfonyl)carbamoyl)-5,16-dioxo-1,2,3,5,6,7,8,9,10,11,13a,14,14a,15,16,16a-hexadecahydrocyclopropa[e]pyrrolo[1,2-a][1,4]diazacyclopentadecin-2-yl 4-fluoroisoindoline-2-carboxylate], for which the EC50 is 5.01 to 35 nM in the assay on HCV GT1a(H77) replicon (read-out: LE_1a (EC50, range)) and 1.01 to 5 nM in the assay with HCV GT1b(Con1) replicon (read-out: LE_1b (EC50, range)).
The matching figures for `C[C@@H]1CC/C=C\[C@@H]2C[C@@]2(C(=O)NS(=O)(=O)C2(C)CC2)NC(=O)[C@@H]2C[C@@H](OC(=O)Nc3ccccc3C(F)(F)F)CN2C(=O)[C@@H](NC(=O)OC(C)(C)C)[C@H](C)C1` [Compound 1302]: 5.01 to 35 nM and 1.01 to 5 nM.
On to `C[C@@H]1CC/C=C\[C@@H]2C[C@@]2(C(=O)NS(=O)(=O)C2(C)CC2)NC(=O)[C@@H]2C[C@@H](OC(=O)N3Cc4cccc(F)c4C3)CN2C(=O)[C@@H](NC(=O)OC(C)(C)C)[C@H](C)C1` [Compound 1315, (2R,6S,7R,9R,13aS,14aR,16aS,Z)-6-((tert-butoxycarbonyl)amino)-7,9-dimethyl-14a-(((1-methylcyclopropyl)sulfonyl)carbamoyl)-5,16-dioxo-1,2,3,5,6,7,8,9,10,11,13a,14,14a,15,16,16a-hexadecahydrocyclopropa[e]pyrrolo[1,2-a][1,4]diazacyclopentadecin-2-yl 4-fluoroisoindoline-2-carboxylate], for which the EC50 with HCV GT1a(H77) replicon (read-out: LE_1a (EC50)) is 0.96 nM; in the assay with HCV GT1a(H77) replicon (read-out: LE_1a (EC50, range)) it was 0.51 to 1 nM; in the assay with HCV GT1b(Con1) replicon (read-out: LE_1b (EC50)), 0.33 nM; in the assay with HCV GT1b(Con1) replicon (read-out: LE_1b (EC50, range)), 0.1 to 0.5 nM.
On to `C[C@H]1CC/C=C\[C@@H]2C[C@@]2(C(=O)NS(=O)(=O)C2(C)CC2)NC(=O)[C@@H]2C[C@@H](OC(=O)c3ccc4c(c3)OCCO4)CN2C(=O)[C@@H](NC(=O)OC(C)(C)C)[C@H](C)C1` [Compound 1012, (2R,6S,7R,9S,13aS,14aR,16aS,Z)-6-((tert-butoxycarbonyl)amino)-7,9-dimethyl-14a-(((1-methylcyclopropyl)sulfonyl)carbamoyl)-5,16-dioxo-1,2,3,5,6,7,8,9,10,11,13a,14,14a,15,16,16a-hexadecahydrocyclopropa[e]pyrrolo[1,2-a][1,4]diazacyclopentadecin-2-yl 2,3-dihydrobenzo[b][1,4]dioxine-6-carboxylate], for which the concentration for a half-maximal effect (EC50) lay in the range of 5.01 to 35 nM with HCV GT1a(H77) replicon (read-out: LE_1a (EC50, range)) and 1.01 to 5 nM in the assay with HCV GT1b(Con1) replicon (read-out: LE_1b (EC50, range)).
The matching figures for `Cc1cc(C)c(NC(=O)O[C@@H]2C[C@H]3C(=O)N[C@]4(C(=O)NS(=O)(=O)C5(C)CC5)C[C@H]4/C=C\CC[C@@H](C)C[C@@H](C)[C@H](NC(=O)OC(C)(C)C)C(=O)N3C2)c(Cl)c1` [Compound 1306]: 5.01 to 35 nM and 5.01 to 35 nM.
In the case of `Cc1cc(C)c(NC(=O)O[C@@H]2C[C@H]3C(=O)N[C@]4(C(=O)NS(=O)(=O)C5(C)CC5)C[C@H]4/C=C\CC[C@@H](C)C[C@@H](C)[C@H](NC(=O)OC(C)(C)C(F)(F)F)C(=O)N3C2)c(Cl)c1` [Compound 1311], the EC50 in the assay with HCV GT1a(H77) replicon (read-out: LE_1a (EC50, range)) fell in the range of 35 to 62.5 nM; with HCV GT1b(Con1) replicon (read-out: LE_1b (EC50, range)) it was 5.01 to 35 nM.
On to `C[C@@H]1CC/C=C\[C@@H]2C[C@@]2(C(=O)NS(=O)(=O)C2(C)CC2)NC(=O)[C@@H]2C[C@@H](OC(=O)Nc3ccc(F)cc3)CN2C(=O)[C@@H](NC(=O)OC(C)(C)C(F)(F)F)[C@H](C)C1` [Compound 1309], for which the 50% effective concentration (EC50) was in the range of 35 to 62.5 nM in the assay on HCV GT1a(H77) replicon (read-out: LE_1a (EC50, range)) and 5.01 to 35 nM with HCV GT1b(Con1) replicon (read-out: LE_1b (EC50, range)).
For `C[C@@H]1CC/C=C\[C@@H]2C[C@@]2(C(=O)NS(=O)(=O)C2(CF)CC2)NC(=O)[C@@H]2C[C@@H](OC(=O)c3ccc4c(c3)OCO4)CN2C(=O)[C@@H](NC(=O)OC(C)(C)C(F)(F)F)[C@H](C)C1` [Compound 1011, (2R,6S,7R,9R,13aS,14aR,16aS,Z)-14a-(((1-(fluoromethyl)cyclopropyl)sulfonyl)carbamoyl)-7,9-dimethyl-5,16-dioxo-6-((((1,1,1-trifluoro-2-methylpropan-2-yl)oxy)carbonyl)amino)-1,2,3,5,6,7,8,9,10,11,13a,14,14a,15,16,16a-hexadecahydrocyclopropa[e]pyrrolo[1,2-a][1,4]diazacyclopentadecin-2-yl benzo[d][1,3]dioxole-5-carboxylate], the EC50 in the assay with HCV GT1a(H77) replicon (read-out: LE_1a (EC50)) is 7.98 nM; in the assay on HCV GT1a(H77) replicon (read-out: LE_1a (EC50, range)), 5.01 to 35 nM; in the assay on HCV GT1b(Con1) replicon (read-out: LE_1b (EC50)) it was 1.68 nM; with HCV GT1b(Con1) replicon (read-out: LE_1b (EC50, range)), 1.01 to 5 nM.
With `COc1ccc(C(=O)O[C@@H]2C[C@H]3C(=O)N[C@]4(C(=O)NS(=O)(=O)C5(C)CC5)C[C@H]4/C=C\CC[C@@H](C)C[C@@H](C)[C@H](NC(=O)OC(C)(C)C)C(=O)N3C2)cc1` [Compound 1003, (2R,6S,7R,9R,13aS,14aR,16aS,Z)-6-((tert-butoxycarbonyl)amino)-7,9-dimethyl-14a-(((1-methylcyclopropyl)sulfonyl)carbamoyl)-5,16-dioxo-1,2,3,5,6,7,8,9,10,11,13a,14,14a,15,16,16a-hexadecahydrocyclopropa[e]pyrrolo[1,2-a][1,4]diazacyclopentadecin-2-yl 4-methoxybenzoate], the EC50 with HCV GT1a(H77) replicon (read-out: LE_1a (EC50, range)) is 5.01 to 35 nM; in the assay on HCV GT1b(Con1) replicon (read-out: LE_1b (EC50, range)), 5.01 to 35 nM.
As for `C[C@@H]1CC/C=C\[C@@H]2C[C@@]2(C(=O)NS(=O)(=O)C2(C)CC2)NC(=O)[C@@H]2C[C@@H](OC(=O)Nc3ccc(F)cc3)CN2C(=O)[C@@H](NC(=O)OC(C)(C)C)[C@H](C)C1` [Compound 1304], the 50% effective concentration (EC50) with HCV GT1a(H77) replicon (read-out: LE_1a (EC50)) is 62.5 nM; in the assay with HCV GT1a(H77) replicon (read-out: LE_1a (EC50, range)) it was 35 to 62.5 nM; with HCV GT1b(Con1) replicon (read-out: LE_1b (EC50)), 20.6 nM; with HCV GT1b(Con1) replicon (read-out: LE_1b (EC50, range)) it was 5.01 to 35 nM.
With `C[C@@H]1CC/C=C\[C@@H]2C[C@@]2(C(=O)NS(=O)(=O)C2(C)CC2)NC(=O)[C@@H]2C[C@@H](OC(=O)Nc3ccccc3C(F)(F)F)CN2C(=O)[C@@H](NC(=O)OC(C)(C)C(F)(F)F)[C@H](C)C1` [Compound 1307], the EC50 was 1.01 to 5 nM in the assay on HCV GT1a(H77) replicon (read-out: LE_1a (EC50, range)) and 1.01 to 5 nM in the assay on HCV GT1b(Con1) replicon (read-out: LE_1b (EC50, range)).
Turning to `C[C@@H]1CC/C=C\[C@@H]2C[C@@]2(C(=O)NS(=O)(=O)C2(C)CC2)NC(=O)[C@@H]2C[C@@H](OC(=O)c3ccc4c(c3)OCCO4)CN2C(=O)[C@@H](NC(=O)OC(C)(C)C(F)(F)F)[C@H](C)C1` [Compound 1015, (2R,6S,7R,9R,13aS,14aR,16aS,Z)-7,9-dimethyl-14a-(((1-methylcyclopropyl)sulfonyl)carbamoyl)-5,16-dioxo-6-((((1,1,1-trifluoro-2-methylpropan-2-yl)oxy)carbonyl)amino)-1,2,3,5,6,7,8,9,10,11,13a,14,14a,15,16,16a-hexadecahydrocyclopropa[e]pyrrolo[1,2-a][1,4]diazacyclopentadecin-2-yl 2,3-dihydrobenzo[b][1,4]dioxine-6-carboxylate], the concentration giving a half-maximal response (EC50) in the assay on HCV GT1a(H77) replicon (read-out: LE_1a (EC50, range)) was 5.01 to 35 nM; in the assay with HCV GT1b(Con1) replicon (read-out: LE_1b (EC50, range)), 1.01 to 5 nM.
In the case of `COc1ccccc1C(=O)O[C@@H]1C[C@H]2C(=O)N[C@]3(C(=O)NS(=O)(=O)C4(CF)CC4)C[C@H]3/C=C\CC[C@@H](C)C[C@@H](C)[C@H](NC(=O)OC(C)(C)C(F)(F)F)C(=O)N2C1` [Compound 1008, (2R,6S,7R,9R,13aS,14aR,16aS,Z)-14a-(((1-(fluoromethyl)cyclopropyl)sulfonyl)carbamoyl)-7,9-dimethyl-5,16-dioxo-6-((((1,1,1-trifluoro-2-methylpropan-2-yl)oxy)carbonyl)amino)-1,2,3,5,6,7,8,9,10,11,13a,14,14a,15,16,16a-hexadecahydrocyclopropa[e]pyrrolo[1,2-a][1,4]diazacyclopentadecin-2-yl 2-methoxybenzoate], the EC50 in the assay on HCV GT1a(H77) replicon (read-out: LE_1a (EC50, range)) lay in the range of 5.01 to 35 nM; in the assay with HCV GT1b(Con1) replicon (read-out: LE_1b (EC50, range)), 1.01 to 5 nM.

These data come from patent US9409943B2 (Bristol-Myers Squibb Company, priority 2012, dated 2016).
